Measured values published in US8193353B2, “6-1H-imidazo-quinazoline and quinolines derivatives, new potent analgesics and anti-inflammatory agents” (Rottapharm S.p.A, priority 2006, dated 2012).
Like-named read-outs stand apart in the source and are kept apart here.

Key:
[1] = system: mechanical hyperalgesia associated with STZ-induced diabetes; experiment: STZ-induced diabetes mechanical hyperalgesia (neuropathic pain); format: in vivo, rat; settings: for ED50: Rattus norvegicus, ip, read-out: ED50 0.5 hrs; for ED100 0.5 hrs: i.p.
Procedure: Painful diabetic neuropathy is one of the most common complications of insulin-dependent diabetes in man; in particular, diabetes can be associated with neuropathic pain which fails to be treated by classical analgesics. Streptozotocin (STZ)-induced diabetes in the rat has been increasingly used as a model of painful diabetic neuropathy to assess the efficacies of potential analgesic agents (C. Courteix, Pain 1993, 53, 81-8). The compounds of the invention were tested for efficacy in reducing mechanical hyperalgesia associated with STZ-induced diabetes in the rat, according to the experimental model as described by the literature. Diabetes was produced with the injection of a single dose (75 mg/Kg i.p.) of STZ. In the following four weeks after the induction of diabetes the clinical symptoms (weight, body and skin temperature, motility and hyperglycemia) progressively developed by the animals, are strictly monitored. After four weeks, the scores obtained in diabetic rats to various pain stimuli (in particular mechanical stimuli) were greater than those in normal rats, indicating hyperalgesia. The hyperalgesia induced by diabetes was evaluated using the Randall-Selitto method as above described, and quantitated using the analgesimeter. Also in this case, the difference in the mechanical pain threshold between the basal value (generally 230-250 g) and the one tolerated by the animals treated with the drug, is defined as mechanical hyperalgesia. The compounds of the invention were administered i.p. (solution, Tween 80, 10% in saline) at different doses, and mechanical hyperalgesia was measured at the reported time, as maximum percent effect (MPE) which represents the difference (%) in pain threshold between the animals treated with the drug and the controls that received only the vehicle, compared with the weight borne by naïf non-diabetic controls. A 100% protection means that the diabetic animals treated with the compound can tolerate the same stimulus (weight) as the naïf non-diabetic animals. MPE higher than 100% means that the diabetic animal treated with the compound can tolerate stimuli (weight) higher than the control non-diabetic animals (hypoalgesia).
In particular, from the MPE data at 0.5 hrs, the doses yielding a protection of 50% (ED50) and 100% (ED100) have been calculated.

[2] = system: Zymosan induced paw volume increase; experiment: Zymosan-induced paw oedema; format: in vivo, rat; settings: oral, 2 hours after challenge
Procedure: (§1) The interplantar injection of Zymosan-induced mechanical hyperalgesia was used as a model of inflammatory pain (Meller, Neuropharmacology, 1994, 33, 1471-1478). In this model, typically a male Sprague-Dawley or Wistar rat (200-250 g) receives an interplantar injection of 3 mg/100 μl zymosan into one hind paw. A marked inflammation occurs in this hind paw. Drugs are administered orally for evaluation of efficacy, 30 min. before the inflammatory insult. The hyperalgesia induced by zymosan administration was evaluated using the Randall-Selitto method (Arch. Int. Pharmacodyn., 1957, 111, 409). The quantitation of the analgesic effect is achieved by an analgesimeter, which consist in applying to the inflamed paw an increasing weight (from 130-140 g up to 500 g). The difference in the mechanical pain threshold between the basal value (generally 230-250 g) and the one tolerated by the animals treated with the drug, determined 4 hours after the inflammatory challenge, is defined as mechanical hyperalgesia. Mechanical hyperalgesia is expressed for the compounds of the invention as ED50, which is the dose of the administered compound able to increase the pain threshold by 50% in comparison with the group of control animals. The corresponding ED100, representing the dose able of reducing of 100% the pain threshold, can be calculated for those cases where there is a linear dose-response relationship. In vivo anti-inflammatory effect exerted by the compound of the invention can be assessed in the same Zymosan induced inflammation test described above, by measuring the volume of the oedema induced by the inflammatory agent. The oedema was evaluated as the increase in the volume of the Zymosan injected paw within a time of 0-2 hrs. The measurements of the variation of the oedema volume of the paw were recorded using hydroplethysmometer, which consists of two plastic cuvettes containing a surfactant liquid, the larger one being used for immersion of the paw, connected to the smaller one which contains a transducer capable of recording small displacements of the volume used for the measure. The paw is immersed in the cuvettes up to the tibiotarsal joint. The volume of the liquid displaced is proportional to the extent of the inflammation. The efficacy of the compounds of the invention in preventing oedema formation is expressed as ED30, is measured 2 hours after the inflammatory challenge, and represents the dose able of reducing of 30%, the Zymosan induced paw volume increase in comparison to control animals (animals treated with Zymosan but treated with only distilled water instead of the testing compound). The corresponding ED50, representing the dose able of reducing of 50% the Zymosan induced paw volume increase, can be calculated for those cases where there is a linear dose-response relationship. In both the experiments, for each test compound, at least three doses were used, with 10 animals per group. Compounds of the invention were tested at 10, 20 and 40 mg/Kg.

[3] = system: Zymosan-induced mechanical hyperalgesia; experiment: Zymosan-induced mechanical hyperalgesia (Randall-Selitto), inflammatory pain; format: in vivo, rat; settings: for ED50: Rattus norvegicus, read-out: Analgesia ED50
Procedure: as §1

[4] = system: IL-6; experiment: IL-6 production in IL-1 stimulated human chondrosarcoma cell line; format: cell-based
Excerpt: (§2) The compounds of the invention have been found effective in interfering with COX-2 and cytokines production, in several cell lines; examples of these effects are reported in Table 3, for COX-2 and IL-1β and IL-6 cytokines, in IL-1 stimulated human chondrosarcoma cell line.

[5] = system: COX-2; experiment: COX-2 production in IL-1 stimulated human chondrosarcoma cell line; format: cell-based; settings: for inhibition at 0.3 µM / inhibition at 1 µM / inhibition at 10 µM: Homo sapiens
Excerpt: as §2

[6] = system: IL-1β; experiment: IL-1β production in IL-1 stimulated human chondrosarcoma cell line; format: cell-based
Excerpt: as §2

[7] = system: CFA-induced prolonged inflammation; experiment: CFA model of chronic inflammatory pain; format: in vivo, rat; settings: for ED50: Rattus norvegicus, ip; for ED50 / ED100 0.5 hrs: calculated from MPE data at 0.5 hrs; for ED100 0.5 hrs: i.p.
[8] = even at the higher doses tested
Excerpt: The performance of representative compounds of Formula (I), in the tests described above, is summarized for both the analgesic effect and the anti-inflammatory effect in Table 4, where the activity of the compounds of the invention is compared with the performance in the same test of well known standards.

[9] = oral, 30 min before zymosan, 4 hours after challenge
[10] = calculated from MPE data at 0.5 hrs

CN(C)CCC=C1c2ccccc2CCc2ccccc21 [Amitriptyline, reference compound]
MPE 0.5 hrs. ([1]; 3 mg/kg i.p.): 44%
MPE 1.5 hrs. ([1]; 3 mg/kg i.p.): 40%
MPE 3 hrs. ([1]; 3 mg/kg i.p.): 5%
MPE 0.5 hrs. ([1]; 10 mg/kg i.p.): 68%
MPE 1.5 hrs. ([1]; 10 mg/kg i.p.): 77%
MPE 0.5 hrs. ([1]; 30 mg/kg i.p.): 65%
MPE 1.5 hrs. ([1]; 30 mg/kg i.p.): 69%
MPE 3 hrs. ([1]; 30 mg/kg i.p.): 23%

Cc1ccc(-c2cc(C(F)(F)F)nn2-c2ccc(S(N)(=O)=O)cc2)cc1 [Celecoxib]
Oedema Reduction ED30 [2]: 13.8 mg/kg
ED50 [3, 9]: 9 mg/kg
Analgesia ED100 [3, 9]: 1172 mg/kg

c1ccc(-c2ncc3cc(-n4ccnc4)ccc3n2)cc1 [Example 1, [2-phenyl-6-(1H-imidazol-1-yl)]quinazoline]
inhibition at 0.3 µM [4]: 35%
inhibition at 0.3 µM [5]: 20%
ED50 ([2]; Rattus norvegicus, read-out: Oedema Reduction ED50): 97 mg/kg
Oedema Reduction ED30 [2]: 7.3 mg/kg
MPE 0.5 hrs. ([1]; 3 mg/kg i.p.): 24%
MPE 0.5 hrs. ([1]; 10 mg/kg i.p.): 41%
MPE 1.5 hrs. ([1]; 10 mg/kg i.p.): 68%
MPE 0.5 hrs. ([1]; 30 mg/kg i.p.): 236%
MPE 1.5 hrs. ([1]; 30 mg/kg i.p.): 225%
MPE 3 hrs. ([1]; 30 mg/kg i.p.): 171%
MPE 6 hrs. ([1]; 30 mg/kg i.p.): 34%
ED50 [1, 10]: 5.5 mg/kg
ED100 0.5 hrs [1, 10]: 9.6 mg/kg
ED50 [3, 9]: 6.5 mg/kg
Analgesia ED100 [3, 9]: 10 mg/kg
inhibition at 0.3 µM [6]: 10%
MPE 0.5 hrs. ([7]; 3 mg/kg i.p.): 52%
MPE 1.5 hrs. ([7]; 3 mg/kg i.p.): 4%
MPE 0.5 hrs. ([7]; 10 mg/kg i.p.): 67%
MPE 1.5 hrs. ([7]; 10 mg/kg i.p.): 63%
MPE 3 hrs. ([7]; 10 mg/kg i.p.): 29%
MPE 6 hrs. ([7]; 10 mg/kg i.p.): 22%
MPE 24 hrs. ([7]; 10 mg/kg i.p.): 5%
MPE 0.5 hrs. ([7]; 30 mg/kg i.p.): 367%
MPE 1.5 hrs. ([7]; 30 mg/kg i.p.): 368%
MPE 3 hrs. ([7]; 30 mg/kg i.p.): 321%
MPE 6 hrs. ([7]; 30 mg/kg i.p.): 239%
MPE 24 hrs. ([7]; 30 mg/kg i.p.): 60%
ED50 [7]: 5.5 mg/kg
ED100 0.5 hrs [7]: 9.6 mg/kg

c1cn(-c2ccc3nc(-c4ccc5c(c4)OCO5)ncc3c2)cn1 [Example 3, [2-(1,3-benzodioxol-5-yl)-6-(1H-imidazol-1-yl)]quinazoline]
inhibition at 0.3 µM [4]: 20%
inhibition at 1 µM ([4]; 1 μM): 35%
inhibition at 0.3 µM [5]: 35%
inhibition at 1 µM [5]: 64%
inhibition at 10 µM [5]: 75%
IC50 ([5]; IL-1 stimulated human chondrosarcoma cell line, read-out: IC50 (inhibition of COX-2 production)): 630 nM
Oedema Reduction ED30 [2]: 172 mg/kg
MPE 0.5 hrs. ([1]; 3 mg/kg i.p.): 73%
MPE 1.5 hrs. ([1]; 3 mg/kg i.p.): 88%
MPE 3 hrs. ([1]; 3 mg/kg i.p.): 50%
MPE 6 hrs. ([1]; 3 mg/kg i.p.): 24%
MPE 0.5 hrs. ([1]; 10 mg/kg i.p.): 141%
MPE 1.5 hrs. ([1]; 10 mg/kg i.p.): 143%
MPE 3 hrs. ([1]; 10 mg/kg i.p.): 98%
MPE 6 hrs. ([1]; 10 mg/kg i.p.): 49%
MPE 0.5 hrs. ([1]; 30 mg/kg i.p.): 283%
MPE 1.5 hrs. ([1]; 30 mg/kg i.p.): 273%
MPE 3 hrs. ([1]; 30 mg/kg i.p.): 263%
MPE 6 hrs. ([1]; 30 mg/kg i.p.): 264%
ED50 [1, 10]: 2.9 mg/kg
ED100 0.5 hrs [1, 10]: 5.3 mg/kg
ED50 [3, 9]: 2.8 mg/kg
Analgesia ED100 [3, 9]: 5 mg/kg
inhibition at 0.3 µM [6]: 20%
inhibition at 1 µM [6]: 15%
inhibition at 10 µM [6]: 40%
MPE 0.5 hrs. ([7]; 3 mg/kg i.p.): 54%
MPE 1.5 hrs. ([7]; 3 mg/kg i.p.): 90%
MPE 3 hrs. ([7]; 3 mg/kg i.p.): 32%
MPE 6 hrs. ([7]; 3 mg/kg i.p.): 5%
MPE 0.5 hrs. ([7]; 10 mg/kg i.p.): 216%
MPE 1.5 hrs. ([7]; 10 mg/kg i.p.): 188%
MPE 3 hrs. ([7]; 10 mg/kg i.p.): 85%
MPE 6 hrs. ([7]; 10 mg/kg i.p.): 23%
MPE 24 hrs. ([7]; 10 mg/kg i.p.): 3%
MPE 0.5 hrs. ([7]; 30 mg/kg i.p.): 344%
MPE 1.5 hrs. ([7]; 30 mg/kg i.p.): 198%
MPE 3 hrs. ([7]; 30 mg/kg i.p.): 101%
MPE 6 hrs. ([7]; 30 mg/kg i.p.): 49%
MPE 24 hrs. ([7]; 30 mg/kg i.p.): 41%
ED50 [7]: 2.7 mg/kg
ED100 0.5 hrs [7]: 4.7 mg/kg

c1cn(-c2ccc3nc(-c4ccc5c(c4)OCCO5)ncc3c2)cn1 [Example 5]
inhibition at 10 µM ([4]; 10 μM): 35%
inhibition at 0.3 µM [5]: 50%
inhibition at 1 µM [5]: 60%
inhibition at 10 µM [5]: 70%
inhibition at 0.3 µM [6]: 20%
inhibition at 1 µM [6]: 30%
inhibition at 10 µM [6]: 40%

CS(=O)(=O)Nc1ccc([N+](=O)[O-])cc1Oc1ccccc1 [Nimesulide]
Oedema Reduction ED30 [2]: 0.5 mg/kg
ED50 [3, 9]: 7.4 mg/kg
Analgesia ED100 [3, 9]: 161 mg/kg
ulcerative side effects [8]: ulcerative side effects

CN1C(C(=O)Nc2ccccn2)=C(O)c2ccccc2S1(=O)=O [Piroxicam, reference compound]
MPE 0.5 hrs. ([7]; 30 mg/kg i.p.): 102%
MPE 1.5 hrs. ([7]; 30 mg/kg i.p.): 111%
MPE 3 hrs. ([7]; 30 mg/kg i.p.): 54%
MPE 6 hrs. ([7]; 30 mg/kg i.p.): 24%
MPE 24 hrs. ([7]; 30 mg/kg i.p.): 38%

COc1cccc(C2(O)CCCCC2CN(C)C)c1 (stereo not shown) [Tramadol, reference compound]
MPE 0.5 hrs. ([1]; 3 mg/kg i.p.): 26%
MPE 1.5 hrs. ([1]; 3 mg/kg i.p.): 53%
MPE 3 hrs. ([1]; 3 mg/kg i.p.): 7%
MPE 0.5 hrs. ([1]; 10 mg/kg i.p.): 58%
MPE 1.5 hrs. ([1]; 10 mg/kg i.p.): 48%
MPE 3 hrs. ([1]; 10 mg/kg i.p.): 27%
MPE 0.5 hrs. ([1]; 30 mg/kg i.p.): 54%
MPE 1.5 hrs. ([1]; 30 mg/kg i.p.): 64%
MPE 3 hrs. ([1]; 30 mg/kg i.p.): 23%
MPE 0.5 hrs. ([1]; 50 mg/kg i.p.): 81%
MPE 1.5 hrs. ([1]; 50 mg/kg i.p.): 60%
MPE 3 hrs. ([1]; 50 mg/kg i.p.): 43%
ED50 ([1]; 0.5 h): 10.9 mg/kg
ED100 0.5 hrs ([1]; extrapolated from a dose-response curve approaching the 100% protection): 251 mg/kg
ED50 [3]: 25.7 mg/kg
Analgesia ED100 [3, 9]: 405 mg/kg
